Data: PubChem BioAssay AID2060512 (Molecular Pharmacology Branch, DTP, NCI, 2025)

Test system: 186277-243-T-J2-PDC complex spheroid viability
Assay: Anticancer human tumor 186277-243-T-J2-PDC patient-derived colon adenocarcinoma cell line growth inhibition [GQUAD]
Details: for IC50: curve of first compound; for viability, T/C: stronger effect = lower value; active means viability on the fitted dose curve at most 10% of control; inactive means the rest
Summary of the method: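 Tumor cells were grown as complex spheroids with HUVEC endothelial cells and mesenchymal stem cells as stroma. G-quadruplex stabilizers were combined with targeted agents over half-log dilutions from near the clinical Cmax, or from 10 microM.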

[1] = second compound 0.0316 µM, first compound 0.000999 µM
[2] = second compound 0.0316 µM, first compound 0.00316 µM
[3] = second compound 0.0316 µM, first compound 0.00999 µM
[4] = second compound 0.0316 µM, first compound 0.0316 µM
[5] = second compound 0.0316 µM, first compound 0.0999 µM
[6] = second compound 0.0316 µM, first compound 0.316 µM
[7] = second compound 0.1 µM, first compound 0.000999 µM
[8] = second compound 0.1 µM, first compound 0.00316 µM
[9] = second compound 0.1 µM, first compound 0.00999 µM
[10] = second compound 0.1 µM, first compound 0.0316 µM
[11] = second compound 0.1 µM, first compound 0.0999 µM
[12] = second compound 0.1 µM, first compound 0.316 µM
[13] = second compound 0.316 µM, first compound 0.000999 µM
[14] = second compound 0.316 µM, first compound 0.00316 µM
[15] = second compound 0.316 µM, first compound 0.00999 µM
[16] = second compound 0.316 µM, first compound 0.0316 µM
[17] = second compound 0.316 µM, first compound 0.0999 µM
[18] = second compound 0.316 µM, first compound 0.316 µM
[19] = second compound 1 µM, first compound 0.000999 µM
[20] = second compound 1 µM, first compound 0.00316 µM
[21] = second compound 1 µM, first compound 0.00999 µM
[22] = second compound 1 µM, first compound 0.0316 µM
[23] = second compound 1 µM, first compound 0.0999 µM
[24] = second compound 1 µM, first compound 0.316 µM
[25] = second compound 3.16 µM, first compound 0.000999 µM
[26] = second compound 3.16 µM, first compound 0.00316 µM
[27] = second compound 3.16 µM, first compound 0.00999 µM
[28] = second compound 3.16 µM, first compound 0.0316 µM
[29] = second compound 3.16 µM, first compound 0.0999 µM
[30] = second compound 3.16 µM, first compound 0.316 µM
[31] = second compound 10 µM, first compound 0.000999 µM
[32] = second compound 10 µM, first compound 0.00316 µM
[33] = second compound 10 µM, first compound 0.00999 µM
[34] = second compound 10 µM, first compound 0.0316 µM
[35] = second compound 10 µM, first compound 0.0999 µM
[36] = second compound 10 µM, first compound 0.316 µM
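Further: spheroids exposed to drugs for 7 days.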
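Wherever viability, T/C is given: 100% = DMSO vehicle control viability.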

CCc1c2c(nc3ccc(O)cc13)-c1cc3c(c(=O)n1C2)COC(=O)[C@]3(O)CC + CN(C)c1ccc(Nc2c3ccc(NC(=O)CCN4CCCC4)cc3nc3cc(NC(=O)CCN4CCCC4)ccc23)cc1
active: viability, T/C [30] 8.68% | viability, T/C [36] 9.38%
5.9 nM: IC50 (second compound 0.0316 µM)
5.78 nM: IC50 (second compound 1 µM)
inactive: viability, T/C [1] 97.1% | viability, T/C [2] 62.1% | viability, T/C [3] 40.6% | viability, T/C [4] 23.8% | viability, T/C [5] 17.1% | viability, T/C [6] 13.1% | viability, T/C [7] 99.8% | viability, T/C [8] 60.1% | viability, T/C [9] 44.3% | viability, T/C [10] 25.8% | viability, T/C [11] 15.8% | viability, T/C [12] 11.6% | viability, T/C [13] 107% | viability, T/C [14] 69% | viability, T/C [15] 36% | viability, T/C [16] 23.7% | viability, T/C [17] 15.7% | viability, T/C [18] 11.1% | viability, T/C [19] 82.9% | viability, T/C [20] 59.7% | viability, T/C [21] 41.6% | viability, T/C [22] 25.4% | viability, T/C [23] 15.8% | viability, T/C [24] 10.4% | viability, T/C [25] 92.8% | viability, T/C [26] 63.4% | viability, T/C [27] 49.4% | viability, T/C [28] 27.1% | viability, T/C [29] 16.3% | viability, T/C [31] 83% | viability, T/C [32] 63.1% | viability, T/C [33] 45.5% | viability, T/C [34] 31.4% | viability, T/C [35] 16.4%
6.26 nM: IC50 (second compound 0.1 µM)
7.75 nM: IC50 (second compound 3.16 µM)
6.31 nM: IC50 (second compound 0.316 µM)
7.5 nM: IC50 (second compound 10 µM)

CC[C@@]1(O)C(=O)OCc2c1cc1n(c2=O)Cc2cc3c(CN(C)C)c(O)ccc3nc2-1 + CN(C)c1ccc(Nc2c3ccc(NC(=O)CCN4CCCC4)cc3nc3cc(NC(=O)CCN4CCCC4)ccc23)cc1
> 316 nM: IC50 (second compound 0.0316 µM)
178 nM: IC50 (second compound 0.316 µM)
153 nM: IC50 (second compound 0.1 µM)
206 nM: IC50 (second compound 1 µM)
209 nM: IC50 (second compound 3.16 µM)
252 nM: IC50 (second compound 10 µM)
inactive: viability, T/C [1] 91.1% | viability, T/C [2] 115% | viability, T/C [3] 99.2% | viability, T/C [4] 88.3% | viability, T/C [5] 54.4% | viability, T/C [6] 50.1% | viability, T/C [7] 91.5% | viability, T/C [8] 104% | viability, T/C [9] 92.5% | viability, T/C [10] 70.9% | viability, T/C [11] 61.1% | viability, T/C [12] 36.9% | viability, T/C [13] 93.9% | viability, T/C [14] 102% | viability, T/C [15] 95.6% | viability, T/C [16] 81.4% | viability, T/C [17] 59.4% | viability, T/C [18] 41.2% | viability, T/C [19] 86.5% | viability, T/C [20] 81.7% | viability, T/C [21] 87.1% | viability, T/C [22] 72% | viability, T/C [23] 65.6% | viability, T/C [24] 41.2% | viability, T/C [25] 96.8% | viability, T/C [26] 99.5% | viability, T/C [27] 105% | viability, T/C [28] 74.4% | viability, T/C [29] 65.2% | viability, T/C [30] 42.5% | viability, T/C [31] 93.8% | viability, T/C [32] 85.7% | viability, T/C [33] 98% | viability, T/C [34] 85.1% | viability, T/C [35] 58.3% | viability, T/C [36] 47.9%
